The values below come from patent publication US9815831B2, “3,5-disubstituted-3H-imidazo[4,5-B]pyridine and 3,5-disubstituted-3H-[1,2,3]triazolo[4,5-B] pyridine compounds as modulators of c-Met protein kinases” (Rhizen Pharmaceuticals SA, priority 2012, dated 2017).

For data set [1], the target named is T1, human recombinant Met kinase (Homo sapiens, UniProt P08581).
T1 construct: purchased Cell Signalling Technology, Beverly, Mass
Put plainly: Colorimetric determination of c-Met kinase activity (HTScan Met Kinase Assay Kit). The format is biochemical. The settings on record: for inhibition at 0.1 µM: 100 nM (cells without *), read-out: c-Met Enzyme % inhibition @ 100 nM; for inhibition: cells marked *: tested @ 300 nM, read-out: c-Met Enzyme % inhibition. In short, it runs like this:
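Human recombinant Met kinase was preincubated with compound for 5 min at room temperature, then reacted with ATP and biotinylated peptide for 30 min; EDTA stop. Phosphopeptide captured on streptavidin and detected with phospho-tyrosine mAb and europium anti-mouse IgG by time-resolved fluorescence (340/615 nm). Reported as % inhibition or IC50.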

The test system of another data set is MKN-45. As to the kind of experiment: Inhibition of MKN-45 proliferation (MTT). It counts as cell-based, human. The conditions noted are these: Homo sapiens, MKN-45 proliferation; for GI50: read-out: MKN45 GI50; for inhibition at 0.1 µM: 100 nM, read-out: MKN45 % inhibition @ 100 nM. In short, it runs like this: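 High-Met human gastric adenocarcinoma MKN-45 cells plated on day 1 and exposed to compound from day 2. Viability measured by MTT dye reduction on day 5; output given as % inhibition at 100 nM and GI50.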

Data set [2] deals with T1, human recombinant Met kinase. Put plainly: Colorimetric determination of c-Met kinase activity (HTScan Met Kinase Assay Kit). It counts as biochemical. The conditions noted are these: read-out: c-Met Enzyme IC50.

pIC50: −log10 of the molar value. Where two headings read alike, the source gives them in different places. Some results are limits rather than exact numbers.

T1 sequence (P08581 25-1390): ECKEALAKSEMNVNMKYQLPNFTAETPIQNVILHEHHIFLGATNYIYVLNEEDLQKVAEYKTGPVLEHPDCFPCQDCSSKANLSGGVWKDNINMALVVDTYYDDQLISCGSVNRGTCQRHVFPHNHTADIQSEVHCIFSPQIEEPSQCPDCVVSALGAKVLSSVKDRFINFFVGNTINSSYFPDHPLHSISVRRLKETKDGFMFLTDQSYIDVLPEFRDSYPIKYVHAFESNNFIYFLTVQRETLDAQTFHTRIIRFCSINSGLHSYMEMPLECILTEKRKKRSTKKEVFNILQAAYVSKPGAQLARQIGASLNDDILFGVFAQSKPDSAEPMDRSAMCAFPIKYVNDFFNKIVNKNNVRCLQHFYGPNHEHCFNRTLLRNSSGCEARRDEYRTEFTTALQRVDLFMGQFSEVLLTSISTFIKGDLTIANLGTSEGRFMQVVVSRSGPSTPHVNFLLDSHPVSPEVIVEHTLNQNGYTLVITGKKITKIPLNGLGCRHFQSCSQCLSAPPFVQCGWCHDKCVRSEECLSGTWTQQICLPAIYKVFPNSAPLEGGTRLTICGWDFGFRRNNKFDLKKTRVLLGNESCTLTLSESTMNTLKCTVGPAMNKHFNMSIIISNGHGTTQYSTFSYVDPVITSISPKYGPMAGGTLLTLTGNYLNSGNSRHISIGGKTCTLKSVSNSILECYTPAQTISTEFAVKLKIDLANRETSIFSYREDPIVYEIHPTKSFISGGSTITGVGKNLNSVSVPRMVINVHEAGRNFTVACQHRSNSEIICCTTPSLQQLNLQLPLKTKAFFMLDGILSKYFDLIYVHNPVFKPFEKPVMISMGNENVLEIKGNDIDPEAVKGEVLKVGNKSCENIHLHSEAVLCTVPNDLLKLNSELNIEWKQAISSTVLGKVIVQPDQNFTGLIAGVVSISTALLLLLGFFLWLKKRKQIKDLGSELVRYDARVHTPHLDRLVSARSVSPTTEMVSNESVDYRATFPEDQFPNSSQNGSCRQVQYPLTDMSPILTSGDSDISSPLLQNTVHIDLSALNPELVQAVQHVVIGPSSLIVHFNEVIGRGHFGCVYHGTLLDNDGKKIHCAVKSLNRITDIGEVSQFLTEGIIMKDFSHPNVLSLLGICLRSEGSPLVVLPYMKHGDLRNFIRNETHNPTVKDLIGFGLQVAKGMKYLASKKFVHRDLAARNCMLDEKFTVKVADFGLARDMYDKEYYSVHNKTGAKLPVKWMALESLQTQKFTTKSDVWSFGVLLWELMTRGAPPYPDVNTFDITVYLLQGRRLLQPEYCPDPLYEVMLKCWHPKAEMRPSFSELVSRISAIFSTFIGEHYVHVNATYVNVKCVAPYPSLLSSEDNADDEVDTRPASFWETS

As to `CC(C)(C)C(=O)OCCONC(=O)c1ccc(-c2ccc3nnn(Cc4ccc5ncccc5c4)c3n2)cc1Cl` [Example 14, 2-(2-chloro-4-(3-(quinolin-6-ylmethyl)-3H-[1,2,3]triazolo[4,5-b]pyridin-5-yl)benzamidooxy)ethyl pivalate], the melting point (as a rule, the temperature, or range, at which the solid turns liquid) is 130 to 133 °C. In addition, the inhibition – broadly, the percentage by which the read-out fell short of the control – at 0.1 µM in data set [1] (Table 4A) lay in the range of 75 to 100%.

Molecule `C[C@@H](O)CNC(=O)c1ccc(-c2ccc3ncn(Cc4ccc5ncccc5c4)c3n2)cc1F` [Example 109, (R)-2-fluoro-N-(2-hydroxypropyl)-4-(3-(quinolin-6-ylmethyl)-3H-imidazo[4,5-b]pyridin-5-yl)benzamide] registered a melting point of 151 to 158 °C. In data set [1] (Table 4B), the inhibition at 0.1 µM was 75 to 100%.

In turn, `CC(=O)OCCONC(=O)c1ccc(-c2ccc3nnn(Cc4ccc5ncccc5c4)c3n2)cc1Cl` [Example 11, 2-(2-chloro-4-(3-(quinolin-6-ylmethyl)-3H-[1,2,3]triazolo[4,5-b]pyridin-5-yl)benzamidooxy)ethyl acetate] displayed a melting point of 168 to 170 °C. Moreover, the inhibition at 0.1 µM in data set [1] (Table 4A) was in the range of 75 to 100%.

`CNC(=O)c1ccc(-c2ccc3ncn(Cc4ccc5ncccc5c4)c3n2)cc1C` [Example 1030, 2,N-Dimethyl-4-(3-quinolin-6-ylmethyl-3H-imidazo[4,5-b]pyridin-5-yl)-benzamide] had a melting point of 118 to 120 °C. Further, in data set [1] (Table 4C), the inhibition at 0.1 µM was less than 25%.

Consider `Cc1cc(-c2ccc3nnn(Cc4ccc5c(ccc[n+]5[O-])c4)c3n2)ccc1C(=O)NOCC(C)(C)O` [Example 41, N-(2-Hydroxy-2-methyl-propoxy)-2-methyl-4-[3-(1-oxy-quinolin-6-ylmethyl)-3H-[1,2,3]triazolo[4,5-b]pyridin-5-yl]-benzamide], for which the melting point lay in the range of 160 to 162 °C.

As for `CON=C(C)c1ccc2nnn(Cc3cc4cccnc4cc3F)c2n1` (racemic) [Example 60, 1-(3-((7-fluoroquinolin-6-yl)methyl)-3H-[1,2,3]triazolo[4,5-b]pyridin-5-yl) ethanone O-methyl oxime], in the data set with MKN-45 (MKN-45, Table 4A), the GI50 (commonly the concentration at which growth is held to half of that of the control) lay in the range of 50 to 100 nM. The pIC50 (usually −log10 of the IC50, conventionally taken in molar units) in data set [2] (Table 4A) was 7.30 to 7.60. Also, the inhibition in data set [1] (Table 4A) lay in the range of 75 to 100%.

Consider `C/C(=N\NC(N)=S)c1ccc2nnn(Cc3cc4cccnc4cc3F)c2n1` [Example 57, 2-(1-(3-((7-fluoroquinolin-6-yl)methyl)-3H-[1,2,3]triazolo[4,5-b]pyridin-5-yl)ethylidene)hydrazinecarbothioamide], for which, in the data set with MKN-45 (MKN-45, Table 4A), the inhibition at 0.1 µM was in the range of 50 to 75% and the 50% growth inhibitory concentration (GI50) lay in the range of 25 to 50 nM. Moreover, in data set [2] (Table 4A), the pIC50 was 7.30 to 7.60. Also, the inhibition in data set [1] (Table 4A) is 75 to 100%.

Turning to `C/C(=N\OCCN)c1ccc2nnn(Cc3ccc4ncccc4c3)c2n1` [Example 63, 1-(3-(quinolin-6-ylmethyl)-3H-[1,2,3]triazolo[4,5-b]pyridin-5-yl)ethanone O-2-aminoethyl oxime], in the data set on MKN-45 (MKN-45, Table 4A), the inhibition at 0.1 µM was less than 25% and the GI50 was 250 to 1000 nM. The pIC50 in data set [2] (Table 4A) was 7.30 to 7.60. Besides, the inhibition in data set [1] (Table 4A) was in the range of 75 to 100%.

Turning to `Cc1cc(-c2ccc3ncn(Cc4cc5cccnc5cc4F)c3n2)ccc1C(N)=O` [Example 1025, 4-[3-(7-Fluoro-quinolin-6-ylmethyl)-3H-imidazo[4,5-b]pyridin-5-yl]-2-methyl-benzamide], the GI50 in the data set with MKN-45 (MKN-45, Table 4C) was in the range of 50 to 100 nM. In addition, the pIC50 in data set [2] (Table 4C) was greater than 7.60. In addition, the inhibition at 0.1 µM in data set [1] (Table 4C) was 75 to 100%.

On to `C/C(=N\NC(N)=S)c1ccc2nnn(Cc3ccc4ncccc4c3)c2n1` [Example 50, 2-(1-(3-(quinolin-6-ylmethyl)-3H-[1,2,3]triazolo[4,5-b]pyridin-5-yl)ethylidene)hydrazinecarbothioamide], for which, in the data set on MKN-45 (MKN-45, Table 4A), the inhibition at 0.1 µM fell in the range of 75 to 100% and the GI50 is 25 to 50 nM. In data set [2] (Table 4A), the pIC50 was 7.30 to 7.60. For the same molecule, the inhibition in data set [1] (Table 4A) lay in the range of 75 to 100%.

For `C/C(=N\OCCO)c1ccc2nnn(Cc3cc4cccnc4cc3F)c2n1` [Example 61, 1-(3-((7-fluoroquinolin-6-yl)methyl)-3H-[1,2,3]triazolo[4,5-b]pyridin-5-yl) ethanone O-2-hydroxyethyl oxime], in the data set with MKN-45 (MKN-45, Table 4A), the GI50 is 50 to 100 nM. For the same molecule, the pIC50 in data set [2] (Table 4A) was 7.30 to 7.60. For the same molecule, the inhibition in data set [1] (Table 4A) lay in the range of 75 to 100%.
